Reference: PMC8066833 (Pharmaceuticals, 2021)

Key:
[1] = delivered intraperitoneally to treat a bacterial infection; cited from earlier work
From the text: Peptoid 1 [H-(NLys-Nspe-Nspe)4-NH2], designated here as MXB-1, is a 12-mer with the trimer sequence motif NLys-Nspe-Nspe repeated four times (structures of the monomers are shown in Figure 1A). It is a helical peptoid with broad-spectrum activity against a variety of pathogens, including viruses as shown here; it is also active against fungi and bacterial biofilms.

[2] = system: EpiOral cells; format: cell-based, human; settings: 3D primary oral epithelial cultures (EpiOral), apical application for 3 h, any concentration up to 256 µg/mL, n = 3 wells per concentration
Description: To provide further evidence to support the development of these agents as potential therapeutics, we assayed cytotoxicity against cultured cells. To provide the optimal in vitro toxicity model, we used 3-dimensional primary cultures of oral epithelial cells (EpiOral, MatTek Life Sciences, Ashland, MA, USA), grown at an air-liquid interface. The cultures were tested in the presence of increasing concentrations of MXB-4, MXB-5 and MXB-9 for 3 h, applied to the apical surface. Viability was monitored using the MTT assay. […] Incubation with 50% ethanol led to 0% viability (not shown).
Figure 6 In vitro toxicity of peptoids. Peptoids were incubated on the apical surface of cultured EpiOral cells (n = 3 wells per concentration) for 3 h. Cell viability was quantified by MTT assay and are shown as mean percent survival +/− SD. Results shown are representative of two independent replicate experiments.
Normal human bronchial epithelial cells, obtained from MatTek (EpiAirway) were grown at an air-liquid interface at 37 °C. […] Cell viability was quantified using the CyQUANT MTT Cell Viability Assay (ThermoFisher, Waltham, MA, USA), following the manufacturer’s instructions Absorbance was read at 540 nm and percent survival was calculated relative to untreated cultures. […]

[3] = system: HSV-1-GFP; assay: Fluorescence imaging of HSV-1-GFP infection; format: cell-based, Herpes Simplex Virus-1; settings: virus treated at 20 µg/mL for 2 h; control-treated virus showed strong fluorescence
[4] = system: HSV-1; assay: Electron microscopy (negative staining and cryo-EM) of peptoid-treated HSV-1; set-up: species or system Herpes Simplex Virus-1; settings: HSV-1 treated 2 h at 37 °C; untreated controls 21% unenveloped capsids
Description: Figure 3 Transmission electron microscope imaging of peptoid-treated HSV-1 vs. controls and comparative analysis of results. Virus was treated for 2 h at 37 °C followed by preparation for EM imaging as described in Materials and Methods. (A) Negative stained EM. (B) Cryo-EM. Visible in the control samples are the viral envelope and intact capsid (both panels). In the samples treated with the peptoids we observe both disrupted envelopes (top panels) and naked capsids (bottom panels).
HSV-1 (1 × 10^8 pfu/mL) was incubated with peptoids or control medium for 2 h. at 37 °C. After incubation, the virus was fixed by addition of 2 volumes 4% glutaraldehyde/PBS, and fixed at 4 °C for 24 h. Virus was applied to grids (ultrathin carbon with lacey support film, Ted Pella, Inc.) for 1 min, followed by staining in 1% phosphotungstic acid for 1 min. Excess liquid was blotted and grids were allowed to air dry. Images were collected using a Thermo Scientific™ Talos™ F200X at 200 kV accelerating voltage with 50 μm objective aperture inserted to enhance contrast. Images were captured using a 4k × 4k CMOS camera (Thermo Scientific, Waltham, MA, USA, Ceta 16M™).
After incubation of HSV-1 virus with peptoids for 2 h. at 37 °C, samples were vitrified using Leica EM-GP2® plunger (Leica Microsystems) as previously described on carbon holey film (R2 × 1 Quantifoil®; Micro Tools GmbH, Jena, Germany) grids. […]

[5] = system: mammalian cells; settings: cited from earlier work
From the text: (§1) This effort led to the development of MXB-5 [H-Ntridec-NLys-Nspe-Nspe-NLys-NH2; see Figure 1 for structure), a peptoid with a 13-carbon N-terminal alkyl modification, that shares some structural similarities with MXB-1 [31]. […] In one in vivo experiment which has been presented orally online, mice were infected intratracheally with bioluminescent Pseudomonas aeruginosa, and were ...

[6] = system: Pseudomonas aeruginosa; settings: cited from earlier work
From the text: as §1

[7] = system: Pseudomonas aeruginosa biofilms; settings: cited from earlier work
[8] = system: HSV-1; assay: HSV-1 inactivation: virus pre-incubated with peptoid, infection of OKF6/TERT-1 cells, HSV-1 DNA by QPCR; format: cell-based, Herpes Simplex Virus-1; settings: for Activity against HSV-1 (screening, HSV-1 DNA by QPCR relative to β-actin): virus incubated with peptoid at 20 µg/mL for 2 h at 37 °C, then infection of OKF6/TERT-1 cells for 24 h
[9] = Small Angle X-ray Scattering, self-assembly in aqueous PBS buffer; format: physicochemical; settings: unpublished data, manuscript in preparation
From the text: Comparing the structures of the ten peptoids on our new library with regard to antiviral activity, halogenation seems to be beneficial as every active compound (except MXB-5) includes at least two Nspe(p-Br) submonomers. […] This difference in activity potentially can be explained by differences in net molecular hydrophobicity upon halogen substitution as previously reported by Molchanova et al.. In this study they found an increasing antimicrobial activity correlating with increasing hydrophobicity, until a threshold was reached where the activity dropped. […] Further studies are needed to make definitive conclusions about these effects. We believe that a certain type and degree and stability of peptoid self-assemblies in aqueous media can be an important determinant of both activity, and selectivity. If assemblies remain intact near zwitterionic mammalian cells, but disassemble near anionic pathogenic membranes, they can be selective towards affecting pathogens while causing little to no harm to the host.

| Substance | Tolerability when delivered intraperitoneally [1] | Cytotoxicity (viability by MTT assay) [2] | GFP fluorescence in cells at 24 h post-infection (viral replication) [3] | Cryo-EM quantification of whole virus, disrupted envelopes and naked capsids [4] | Cytotoxicity to mammalian cells relative to MXB-1 [5] | Tolerability in the lungs of the mice ([6]; intratracheal infection model) | Bacterial loads compared to untreated animals ([6]; mice, intratracheal infection with bioluminescent Pseudomonas aeruginosa) | Activity against Pseudomonas aeruginosa biofilms [7] | Activity against HSV-1, dose-dependence ([8]; 20 µg/mL for 2 h (5 and 20 µg/mL tested), Figure 2B) | Incubation time at which inactivation of HSV-1 is seen (time course) ([8]; time course, Figure 2C) | Activity against HSV-1 (screening, HSV-1 DNA by QPCR relative to β-actin) [8] | Self-assembled structure in solution (SAXS) [9] |
| --- | --- | --- | --- | --- | --- | --- | --- | --- | --- | --- | --- | --- |
| H-(NLys-Nspe-Nspe)4-NH2 [MXB-1] | reasonably well tolerated | – | – | – | – | – | – | – | – | – | – | – |
| H-Ntridec-NLys-Nspe-Nspe-NLys-NH2 [MXB-5] | – | no observable cytotoxicity | very weak fluorescence | large increase in both unenveloped capsids | significantly less cytotoxic | well tolerated | significant reduction in bacterial loads | highly active | strong activity | ≤ 30 min | strong activity | stable core-shell ellipsoidal micellar structures |
| LL-37: human cathelicidin AMP, natural human host defense peptide (LLGDFFRKSKEKIGKEFKRIVQRIKDFLRNLVPRTES; Antibacterial peptide LL-37; UniProt P49913 134-170, looked up) [reference compound] | – | – | – | – | – | – | – | – | – | – | direct inactivation of HSV-1 | – |
